Test results: ChEMBL document CHEMBL4507289, “Data for DCP probe GSM1” (2021)

Tests used:
[1] = target: Dual specificity mitogen-activated protein kinase kinase 4 (Homo sapiens) (UniProt P45985); conditions: Compound concentration 1000.0 nM
[2] = target: Serine/threonine-protein kinase MAK (Homo sapiens) (UniProt P20794); conditions: Compound concentration 1000.0 nM
[3] = target: Sodium-dependent dopamine transporter (Homo sapiens, UniProt Q01959); conditions: Compound concentration 10.0 uM
[4] = target: Dual specificity tyrosine-phosphorylation-regulated kinase 2 (Homo sapiens) (UniProt Q92630); conditions: Compound concentration 1000.0 nM
[5] = target: Leucine-rich repeat serine/threonine-protein kinase 2 (Homo sapiens) (UniProt Q5S007); conditions: Compound concentration 1000.0 nM
[6] = target: Ephrin type-B receptor 4 (Homo sapiens) (UniProt P54760); conditions: Compound concentration 1000.0 nM
[7] = target: MAP/microtubule affinity-regulating kinase 3 (Homo sapiens) (UniProt P27448); conditions: Compound concentration 1000.0 nM
[8] = target: Rhodopsin kinase GRK1 (Homo sapiens) (UniProt Q15835); conditions: Compound concentration 1000.0 nM
[9] = target: Serine/threonine-protein kinase 32C (Homo sapiens) (UniProt Q86UX6); conditions: Compound concentration 1000.0 nM
[10] = target: Phosphatidylinositol 4-phosphate 5-kinase type-1 alpha (Homo sapiens) (UniProt Q99755); conditions: Compound concentration 1000.0 nM
Phosphatidylinositol 4-phosphate 5-kinase type-1 alpha (Homo sapiens), sequence (Q99755 whole entry): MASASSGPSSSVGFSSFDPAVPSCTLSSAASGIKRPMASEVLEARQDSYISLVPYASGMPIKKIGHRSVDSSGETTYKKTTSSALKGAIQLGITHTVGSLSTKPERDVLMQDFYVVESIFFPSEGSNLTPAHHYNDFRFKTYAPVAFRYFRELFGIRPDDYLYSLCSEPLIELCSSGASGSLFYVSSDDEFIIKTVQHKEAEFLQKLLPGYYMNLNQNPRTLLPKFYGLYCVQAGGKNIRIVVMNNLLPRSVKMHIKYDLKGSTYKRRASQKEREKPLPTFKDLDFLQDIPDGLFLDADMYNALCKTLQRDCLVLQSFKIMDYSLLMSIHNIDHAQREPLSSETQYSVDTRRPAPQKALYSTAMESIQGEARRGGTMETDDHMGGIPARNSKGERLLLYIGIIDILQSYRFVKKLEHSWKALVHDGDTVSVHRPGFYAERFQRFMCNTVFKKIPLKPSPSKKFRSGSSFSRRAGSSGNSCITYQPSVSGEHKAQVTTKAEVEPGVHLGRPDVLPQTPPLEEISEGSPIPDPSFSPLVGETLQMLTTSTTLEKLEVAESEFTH

[11] = target: Receptor tyrosine-protein kinase erbB-3 (Homo sapiens) (UniProt P21860); conditions: Compound concentration 1000.0 nM
[12] = target: Proto-oncogene tyrosine-protein kinase Src (Homo sapiens) (UniProt P12931); conditions: Compound concentration 1000.0 nM
[13] = target: Homeodomain-interacting protein kinase 1 (Homo sapiens) (UniProt Q86Z02); conditions: Compound concentration 1000.0 nM
[14] = target: Macrophage colony-stimulating factor 1 receptor (Homo sapiens) (UniProt P07333); conditions: Compound concentration 1000.0 nM
Macrophage colony-stimulating factor 1 receptor (Homo sapiens), sequence (P07333 whole entry): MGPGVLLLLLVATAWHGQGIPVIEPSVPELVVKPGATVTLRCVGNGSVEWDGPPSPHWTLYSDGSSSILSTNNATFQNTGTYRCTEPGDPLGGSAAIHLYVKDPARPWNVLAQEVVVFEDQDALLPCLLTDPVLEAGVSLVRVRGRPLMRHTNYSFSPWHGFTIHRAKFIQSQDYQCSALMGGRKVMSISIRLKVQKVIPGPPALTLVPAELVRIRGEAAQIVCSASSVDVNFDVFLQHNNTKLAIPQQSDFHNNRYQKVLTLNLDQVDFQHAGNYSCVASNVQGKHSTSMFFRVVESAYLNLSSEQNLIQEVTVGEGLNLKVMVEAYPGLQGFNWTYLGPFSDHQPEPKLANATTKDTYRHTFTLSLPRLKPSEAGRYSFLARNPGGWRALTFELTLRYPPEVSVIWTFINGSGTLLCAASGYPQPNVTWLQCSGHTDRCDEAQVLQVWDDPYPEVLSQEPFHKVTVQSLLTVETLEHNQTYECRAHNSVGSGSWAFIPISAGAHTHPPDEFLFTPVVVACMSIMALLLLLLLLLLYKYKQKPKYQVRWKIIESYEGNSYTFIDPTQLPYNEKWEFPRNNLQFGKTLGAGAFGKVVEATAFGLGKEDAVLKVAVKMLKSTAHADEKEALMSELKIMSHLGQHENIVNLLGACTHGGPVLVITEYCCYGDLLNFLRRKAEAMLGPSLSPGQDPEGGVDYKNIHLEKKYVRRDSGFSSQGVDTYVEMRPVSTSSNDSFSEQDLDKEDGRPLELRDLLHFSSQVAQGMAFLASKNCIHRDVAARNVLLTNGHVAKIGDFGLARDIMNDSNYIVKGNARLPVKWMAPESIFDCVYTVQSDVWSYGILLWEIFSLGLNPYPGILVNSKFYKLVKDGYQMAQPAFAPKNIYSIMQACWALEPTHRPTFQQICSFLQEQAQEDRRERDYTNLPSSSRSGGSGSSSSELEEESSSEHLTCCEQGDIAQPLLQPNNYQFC

[15] = target: Mitogen-activated protein kinase kinase kinase 9 (Homo sapiens) (UniProt P80192); conditions: Compound concentration 1000.0 nM
[16] = target: Calcium/calmodulin-dependent protein kinase type II subunit alpha (Homo sapiens) (UniProt Q9UQM7); conditions: Compound concentration 1000.0 nM
Calcium/calmodulin-dependent protein kinase type II subunit alpha (Homo sapiens), sequence (Q9UQM7 whole entry): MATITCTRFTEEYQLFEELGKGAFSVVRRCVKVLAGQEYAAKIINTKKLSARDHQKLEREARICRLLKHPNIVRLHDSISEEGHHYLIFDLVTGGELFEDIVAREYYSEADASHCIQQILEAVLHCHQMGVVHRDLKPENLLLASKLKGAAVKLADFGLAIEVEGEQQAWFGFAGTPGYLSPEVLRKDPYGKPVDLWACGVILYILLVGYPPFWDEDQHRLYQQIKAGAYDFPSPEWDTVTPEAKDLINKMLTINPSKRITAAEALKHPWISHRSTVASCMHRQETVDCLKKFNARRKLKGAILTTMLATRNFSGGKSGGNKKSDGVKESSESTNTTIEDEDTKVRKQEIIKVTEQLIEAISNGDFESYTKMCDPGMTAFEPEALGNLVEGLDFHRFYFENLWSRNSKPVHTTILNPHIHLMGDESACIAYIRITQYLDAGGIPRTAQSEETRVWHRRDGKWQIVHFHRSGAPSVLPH

[17] = target: Serine/threonine-protein kinase PknB (Mycobacterium tuberculosis) (UniProt P9WI81); conditions: Compound concentration 1000.0 nM
[18] = target: Bone morphogenetic protein receptor type-1B (Homo sapiens) (UniProt O00238); conditions: Compound concentration 1000.0 nM
[19] = target: Calcium/calmodulin-dependent protein kinase kinase 1 (Homo sapiens) (UniProt Q8N5S9); conditions: Compound concentration 1000.0 nM
[20] = target: Ephrin type-B receptor 2 (Homo sapiens) (UniProt P29323); conditions: Compound concentration 1000.0 nM
[21] = target: Mast/stem cell growth factor receptor Kit (Homo sapiens) (UniProt P10721); conditions: Compound concentration 1000.0 nM
[22] = target: Calcium/calmodulin-dependent protein kinase type 1 (Homo sapiens) (UniProt Q14012); conditions: Compound concentration 1000.0 nM
Calcium/calmodulin-dependent protein kinase type 1 (Homo sapiens), sequence (Q14012 whole entry, looked up): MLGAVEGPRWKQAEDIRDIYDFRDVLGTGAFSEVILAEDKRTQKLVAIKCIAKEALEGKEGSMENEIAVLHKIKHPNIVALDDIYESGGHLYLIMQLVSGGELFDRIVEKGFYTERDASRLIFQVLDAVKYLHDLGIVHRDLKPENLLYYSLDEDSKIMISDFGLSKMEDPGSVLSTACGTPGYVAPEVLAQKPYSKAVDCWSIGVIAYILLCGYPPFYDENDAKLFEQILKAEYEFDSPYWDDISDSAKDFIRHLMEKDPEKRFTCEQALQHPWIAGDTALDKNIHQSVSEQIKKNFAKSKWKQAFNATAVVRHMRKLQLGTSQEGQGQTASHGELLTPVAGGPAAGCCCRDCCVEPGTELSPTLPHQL

[23] = target: Cyclin-dependent kinase 4 (Homo sapiens) (UniProt P11802); conditions: Compound concentration 1000.0 nM
[24] = tested on: Mast/stem cell growth factor receptor Kit (Homo sapiens), P10721 [D816V]; conditions: Compound concentration 1000.0 nM
[25] = target: Serine/threonine-protein kinase SBK1 (Homo sapiens) (UniProt Q52WX2); conditions: Compound concentration 1000.0 nM
[26] = target: Glycogen synthase kinase-3 alpha (Homo sapiens) (UniProt P49840); conditions: Compound concentration 1000.0 nM
[27] = target: Serine/threonine-protein kinase 36 (Homo sapiens) (UniProt Q9NRP7); conditions: Compound concentration 1000.0 nM
[28] = target: Tyrosine-protein kinase Mer (Homo sapiens) (UniProt Q12866); conditions: Compound concentration 1000.0 nM
[29] = target: Protein kinase C iota type (Homo sapiens) (UniProt P41743); conditions: Compound concentration 1000.0 nM
[30] = target: Serine/threonine-protein kinase PAK 4 (Homo sapiens) (UniProt O96013); conditions: Compound concentration 1000.0 nM
[31] = target: Ephrin type-A receptor 2 (Homo sapiens) (UniProt P29317); conditions: Compound concentration 1000.0 nM
[32] = target: Serine/threonine-protein kinase D3 (Homo sapiens) (UniProt O94806); conditions: Compound concentration 1000.0 nM
[33] = target: Serine/threonine-protein kinase MRCK alpha (Homo sapiens) (UniProt Q5VT25); conditions: Compound concentration 1000.0 nM
[34] = target: Cyclin-dependent kinase 16 (Homo sapiens) (UniProt Q00536); conditions: Compound concentration 1000.0 nM
[35] = target: Proto-oncogene tyrosine-protein kinase receptor Ret (Homo sapiens) (UniProt P07949); conditions: Compound concentration 1000.0 nM
Proto-oncogene tyrosine-protein kinase receptor Ret (Homo sapiens), sequence (P07949 whole entry): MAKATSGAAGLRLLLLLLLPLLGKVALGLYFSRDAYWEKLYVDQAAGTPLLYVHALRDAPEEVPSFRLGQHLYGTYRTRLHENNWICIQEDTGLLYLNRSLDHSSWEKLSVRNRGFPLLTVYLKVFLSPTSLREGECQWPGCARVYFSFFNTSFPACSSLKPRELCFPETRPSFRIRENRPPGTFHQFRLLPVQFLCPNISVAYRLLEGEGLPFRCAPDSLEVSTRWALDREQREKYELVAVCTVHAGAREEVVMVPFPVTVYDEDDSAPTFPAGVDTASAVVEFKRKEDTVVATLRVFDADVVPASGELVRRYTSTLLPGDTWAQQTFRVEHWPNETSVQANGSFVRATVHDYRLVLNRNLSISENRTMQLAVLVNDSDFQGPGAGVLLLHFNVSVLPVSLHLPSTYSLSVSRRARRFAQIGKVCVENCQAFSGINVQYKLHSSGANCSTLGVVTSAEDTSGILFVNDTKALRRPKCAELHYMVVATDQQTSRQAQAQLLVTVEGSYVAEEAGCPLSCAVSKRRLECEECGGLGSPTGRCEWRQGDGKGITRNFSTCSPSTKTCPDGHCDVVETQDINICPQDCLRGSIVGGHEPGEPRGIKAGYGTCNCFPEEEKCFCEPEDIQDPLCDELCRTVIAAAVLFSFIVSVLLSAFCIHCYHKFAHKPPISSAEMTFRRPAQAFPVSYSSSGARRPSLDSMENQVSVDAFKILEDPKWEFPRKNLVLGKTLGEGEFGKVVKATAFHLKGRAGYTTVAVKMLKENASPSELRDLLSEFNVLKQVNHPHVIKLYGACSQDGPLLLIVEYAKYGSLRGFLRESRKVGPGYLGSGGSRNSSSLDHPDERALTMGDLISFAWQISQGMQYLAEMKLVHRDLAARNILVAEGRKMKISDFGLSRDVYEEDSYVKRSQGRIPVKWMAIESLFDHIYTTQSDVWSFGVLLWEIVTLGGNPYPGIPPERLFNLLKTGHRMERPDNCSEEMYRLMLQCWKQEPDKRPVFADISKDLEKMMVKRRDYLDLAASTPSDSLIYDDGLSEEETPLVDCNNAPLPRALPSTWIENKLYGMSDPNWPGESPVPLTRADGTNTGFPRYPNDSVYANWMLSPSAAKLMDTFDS

[36] = target: Atypical kinase COQ8B, mitochondrial (Homo sapiens) (UniProt Q96D53); conditions: Compound concentration 1000.0 nM
[37] = target: Cyclin-dependent kinase 9 (Homo sapiens) (UniProt P50750); conditions: Compound concentration 1000.0 nM
[38] = target: Muscarinic acetylcholine receptor M3 (Homo sapiens) (UniProt P20309); conditions: Compound concentration 10.0 uM
[39] = tested on: Phosphatidylinositol 4,5-bisphosphate 3-kinase catalytic subunit alpha isoform (Homo sapiens), P42336 [C420R]; conditions: Compound concentration 1000.0 nM
[40] = target: Serine/threonine-protein kinase SIK1 (Homo sapiens) (UniProt P57059); conditions: Compound concentration 1000.0 nM
[41] = target: Serine/threonine-protein kinase NIM1 (Homo sapiens) (UniProt Q8IY84); conditions: Compound concentration 1000.0 nM
Serine/threonine-protein kinase NIM1 (Homo sapiens), sequence (Q8IY84 whole entry): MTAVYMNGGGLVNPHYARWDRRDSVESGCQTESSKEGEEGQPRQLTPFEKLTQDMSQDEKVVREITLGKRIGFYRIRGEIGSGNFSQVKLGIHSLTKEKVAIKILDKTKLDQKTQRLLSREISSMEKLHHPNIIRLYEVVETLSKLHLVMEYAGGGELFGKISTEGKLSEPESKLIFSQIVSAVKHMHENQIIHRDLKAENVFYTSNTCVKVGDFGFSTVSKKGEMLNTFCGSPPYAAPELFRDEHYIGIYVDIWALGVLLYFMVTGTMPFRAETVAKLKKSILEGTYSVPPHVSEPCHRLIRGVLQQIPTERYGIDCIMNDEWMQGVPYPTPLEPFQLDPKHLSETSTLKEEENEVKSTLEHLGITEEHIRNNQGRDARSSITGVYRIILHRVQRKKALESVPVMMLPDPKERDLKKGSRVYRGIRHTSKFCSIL

[42] = target: Aurora kinase A (Homo sapiens) (UniProt O14965); conditions: Compound concentration 1000.0 nM
Aurora kinase A (Homo sapiens), sequence (O14965 whole entry): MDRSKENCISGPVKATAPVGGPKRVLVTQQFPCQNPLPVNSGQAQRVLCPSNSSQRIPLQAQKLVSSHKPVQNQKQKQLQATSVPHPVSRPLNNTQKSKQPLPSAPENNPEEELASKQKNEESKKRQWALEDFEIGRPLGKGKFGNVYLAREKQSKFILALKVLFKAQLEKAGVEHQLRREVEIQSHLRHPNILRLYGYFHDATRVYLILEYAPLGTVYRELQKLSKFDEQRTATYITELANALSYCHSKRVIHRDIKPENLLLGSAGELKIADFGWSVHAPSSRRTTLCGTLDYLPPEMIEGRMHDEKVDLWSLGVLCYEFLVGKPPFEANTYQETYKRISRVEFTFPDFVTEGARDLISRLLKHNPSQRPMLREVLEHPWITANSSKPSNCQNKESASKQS

[43] = target: Serine/threonine-protein kinase D2 (Homo sapiens) (UniProt Q9BZL6); conditions: Compound concentration 1000.0 nM
[44] = target: GABA-A receptor; anion channel (Rattus norvegicus) (UniProt O09028+P15431+P18506+P18508+P19969+P20236+P23574+P23576+P28471+P28473+P30191+P62813+P63079+P63138+Q91ZM7+Q9ES14); conditions: Compound concentration 10.0 uM

Sodium-dependent dopamine transporter, sequence (Q01959 whole entry): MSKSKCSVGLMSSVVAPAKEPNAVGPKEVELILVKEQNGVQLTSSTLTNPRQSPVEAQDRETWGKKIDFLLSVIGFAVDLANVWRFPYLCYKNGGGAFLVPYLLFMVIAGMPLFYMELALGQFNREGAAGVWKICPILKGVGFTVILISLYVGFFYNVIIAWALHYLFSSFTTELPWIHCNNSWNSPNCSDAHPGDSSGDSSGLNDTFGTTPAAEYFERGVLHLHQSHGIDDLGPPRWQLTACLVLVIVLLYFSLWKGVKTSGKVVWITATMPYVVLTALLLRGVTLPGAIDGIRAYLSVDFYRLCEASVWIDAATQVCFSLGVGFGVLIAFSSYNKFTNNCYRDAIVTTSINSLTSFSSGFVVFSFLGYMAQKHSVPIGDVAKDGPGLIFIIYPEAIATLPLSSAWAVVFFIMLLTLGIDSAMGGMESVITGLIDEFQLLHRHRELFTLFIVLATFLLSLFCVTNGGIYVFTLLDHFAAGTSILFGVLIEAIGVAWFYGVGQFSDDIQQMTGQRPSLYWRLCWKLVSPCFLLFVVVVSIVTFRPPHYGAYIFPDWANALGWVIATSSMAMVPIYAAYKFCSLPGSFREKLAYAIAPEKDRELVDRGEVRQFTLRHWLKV

For `COc1cc(-c2cn([C@H]3CCc4c(F)cccc4N(CC(F)(F)F)C3=O)nn2)ccc1-n1cnc(C)c1`, the residual activity [1] was 93%, the residual activity [2] was 100% and the inhibition [3] was 99.7%. It also gave a residual activity [4] of 100%, a residual activity [5] of 57% and a residual activity [6] of 100%. It also gave a residual activity [7] of 100%, a residual activity [8] of 99% and a residual activity [9] of 100%. For the same compound, the residual activity [10] was 100%, the residual activity [11] was 98% and the residual activity [12] was 93%. It also gave a residual activity [13] of 100%, a residual activity [14] of 100% and a residual activity [15] of 100%. It also gave a residual activity [16] of 100%, a residual activity [17] of 82% and a residual activity [18] of 100%. For the same compound, the residual activity [19] was 100%, the residual activity [20] was 100% and the residual activity [21] was 100%. It also gave a residual activity [22] of 100%, a residual activity [23] of 88% and a residual activity [24] of 100%. For the same compound, the residual activity [25] was 94%, the residual activity [26] was 100% and the residual activity [27] was 100%. It also gave a residual activity [28] of 100%, a residual activity [29] of 100% and a residual activity [30] of 99%. For the same compound, the residual activity [31] was 100%, the residual activity [32] was 100% and the residual activity [33] was 100%. For the same compound, the residual activity [34] was 82%, the residual activity [35] was 84% and the residual activity [36] was 77%. It also gave a residual activity [37] of 97%, an inhibition [38] of -4.42% and a residual activity [39] of 75%. For the same compound, the residual activity [40] was 100%, the residual activity [41] was 78% and the residual activity [42] was 100%. For the same compound, the residual activity [43] was 100% and the inhibition [44] was 22.6%.
In the case of `COc1cc(-c2cn([C@H]3CCc4ccccc4N(CC(F)(F)F)C3=O)nn2)ccc1-n1ccc(C)n1`, the residual activity [1] was 100%, the residual activity [2] was 99% and the inhibition [3] was 5.21%. The residual activity [4] was 94%, the residual activity [5] was 54% and the residual activity [6] was 92%. The residual activity [7] was 100%, the residual activity [8] was 80% and the residual activity [9] was 84%. For the same compound, the residual activity [10] was 96%, the residual activity [11] was 77% and the residual activity [12] was 100%. The residual activity [13] was 96%, the residual activity [14] was 93% and the residual activity [15] was 91%. The residual activity [16] was 85%, the residual activity [17] was 78% and the residual activity [18] was 100%. For the same compound, the residual activity [19] was 100%, the residual activity [20] was 100% and the residual activity [21] was 100%. It also gave a residual activity [22] of 100%, a residual activity [23] of 53% and a residual activity [24] of 100%. It also gave a residual activity [25] of 94%, a residual activity [26] of 86% and a residual activity [27] of 79%. The residual activity [28] was 100%, the residual activity [29] was 100% and the residual activity [30] was 100%. The residual activity [31] was 100%, the residual activity [32] was 100% and the residual activity [33] was 100%. It also gave a residual activity [34] of 81%, a residual activity [35] of 91% and a residual activity [36] of 100%. It also gave a residual activity [37] of 100%, an inhibition [38] of -6.94% and a residual activity [39] of 68%. For the same compound, the residual activity [40] was 100%, the residual activity [41] was 80% and the residual activity [42] was 58%. The residual activity [43] was 86% and the inhibition [44] was -6.73%.
